Experimental data from the supplement of paper PMC10307832.

How the values were obtained:
Experiment in all cases: relative viability (nuclei count vs DMSO), 5 days (fraction); higher = more cells survive
NCI-H2023 = system: NCI-H2023
Outline: (§1)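 One day after seeding in 1536-well plates, lung cancer cell lines were dosed by pin tool. Dosing was either single-drug or a fixed anchor-drug dose plus five library-drug doses (not always all listed) in √10 steps. After 5 days, nuclei were stained in one fix-and-stain step and counted on 4× images, and relative viability is the nuclei count of treated wells over that of vehicle wells, given as the median of duplicate plates.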

NCI-H2085 = system: NCI-H2085
Outline: as §1

NCI-H2170 = system: NCI-H2170
Outline: as §1

NCI-H23 = system: NCI-H23
Outline: as §1

NCI-H2405 = system: NCI-H2405
Outline: as §1

NCI-H322M = system: NCI-H322M
Outline: as §1

NCI-H441 = system: NCI-H441
Outline: as §1

NCI-H650 = system: NCI-H650
Outline: as §1

NCI-H727 = system: NCI-H727
Outline: as §1

RERF-LC-KJ = system: RERF-LC-KJ
Outline: as §1

SK-MES-1 = system: SK-MES-1
Outline: as §1

UMC-11 = system: UMC-11
Outline: as §1

## O=C(O)CCCCC(CCSCc1ccccc1)SCc1ccccc1 (configuration not stated) [CPI-613] + Cc1nc(Nc2ncc(C(=O)Nc3c(C)cccc3Cl)s2)cc(N2CCN(CCO)CC2)n1 [Dasatinib] (partner 0.075 µM)
NCI-H2023; first compound 158.11 µM
  relative viability: 0.0687
NCI-H2023; first compound 500 µM
  relative viability: 0.0087
NCI-H2085; first compound 5 µM
  relative viability: 0.267
NCI-H2085; first compound 15.81 µM
  relative viability: 0.266
NCI-H2085; first compound 50 µM
  relative viability: 0.255
NCI-H2085; first compound 158.11 µM
  relative viability: 0.242
NCI-H2085; first compound 500 µM
  relative viability: 0.257
NCI-H2170; first compound 5 µM
  relative viability: 0.586
NCI-H2170; first compound 15.81 µM
  relative viability: 0.566
NCI-H2170; first compound 50 µM
  relative viability: 0.612
NCI-H2170; first compound 158.11 µM
  relative viability: 0.461
NCI-H2170; first compound 500 µM
  relative viability: 0.167
NCI-H23; first compound 5 µM
  relative viability: 0.725
NCI-H23; first compound 15.81 µM
  relative viability: 0.635
NCI-H23; first compound 50 µM
  relative viability: 0.621
NCI-H23; first compound 158.11 µM
  relative viability: 0.293
NCI-H23; first compound 500 µM
  relative viability: 0.017
NCI-H2405; first compound 5 µM
  relative viability: 0.205
NCI-H2405; first compound 15.81 µM
  relative viability: 0.176
NCI-H2405; first compound 50 µM
  relative viability: 0.203
NCI-H2405; first compound 158.11 µM
  relative viability: 0.201
NCI-H2405; first compound 500 µM
  relative viability: 0.209
NCI-H322M; first compound 5 µM
  relative viability: 0.248
NCI-H322M; first compound 15.81 µM
  relative viability: 0.245
NCI-H322M; first compound 50 µM
  relative viability: 0.257
NCI-H322M; first compound 158.11 µM
  relative viability: 0.23
NCI-H322M; first compound 500 µM
  relative viability: 0.0545
NCI-H441; first compound 5 µM
  relative viability: 0.581
NCI-H441; first compound 15.81 µM
  relative viability: 0.52
NCI-H441; first compound 50 µM
  relative viability: 0.484
NCI-H441; first compound 158.11 µM
  relative viability: 0.3
NCI-H441; first compound 500 µM
  relative viability: 0.044
NCI-H650; first compound 5 µM
  relative viability: 0.474
NCI-H650; first compound 15.81 µM
  relative viability: 0.366
NCI-H650; first compound 50 µM
  relative viability: 0.424
NCI-H650; first compound 158.11 µM
  relative viability: 0.345
NCI-H650; first compound 500 µM
  relative viability: 0.361
NCI-H727; first compound 5 µM
  relative viability: 0.305
NCI-H727; first compound 15.81 µM
  relative viability: 0.35
NCI-H727; first compound 50 µM
  relative viability: 0.329
NCI-H727; first compound 158.11 µM
  relative viability: 0.275
NCI-H727; first compound 500 µM
  relative viability: 0.138
RERF-LC-KJ; first compound 5 µM
  relative viability: 0.784
RERF-LC-KJ; first compound 15.81 µM
  relative viability: 0.754
RERF-LC-KJ; first compound 50 µM
  relative viability: 0.766
RERF-LC-KJ; first compound 158.11 µM
  relative viability: 0.198
RERF-LC-KJ; first compound 500 µM
  relative viability: 0.123
SK-MES-1; first compound 5 µM
  relative viability: 0.393
SK-MES-1; first compound 15.81 µM
  relative viability: 0.428
SK-MES-1; first compound 50 µM
  relative viability: 0.432
SK-MES-1; first compound 158.11 µM
  relative viability: 0.125
SK-MES-1; first compound 500 µM
  relative viability: 0.0807
UMC-11; first compound 5 µM
  relative viability: 0.444
UMC-11; first compound 15.81 µM
  relative viability: 0.417
UMC-11; first compound 50 µM
  relative viability: 0.482
UMC-11; first compound 158.11 µM
  relative viability: 0.144
UMC-11; first compound 500 µM
  relative viability: 0.0883
